# Like-named read-outs stand apart in the source and are kept apart here.
# What was measured:
# NCI-H2228 = assay: CCK-8 tumor cell proliferation, NCI-H2228; conditions: Homo sapiens, Table 15, ALK inhibitor based, read-out: IC50 inhibiting proliferation of tumor cells, NCI-H2228
# Procedure: (§1) The tumor cells used herein were cultured in a cell culture medium listed in table 4 at 37° C. in an incubator with 5% CO2. Prior to experimentation, all cells used were correctly identified by STR profiling, and tested negative for mycoplasma through routine screenings.
# (§2) IC50 values of the compounds of the present disclosure (including the compounds in Tables 1 and 3, and compounds of examples) were measured using the Meilun Cell Counting Kit-8 kit from Dalian Meilun Biotech Co., Ltd. Assay details are as follows: tumor cells were seeded in a 96-well plate at a density listed in Table 5. After 24 h, 100 μL of the inoculated cells were treated with 0.5 μL of the compounds of the present disclosure (including the compounds in Tables 1 and 3, and compounds of examples) at 10 different successively decreasing concentrations (starting at the highest concentration of 10 μM; 5-fold serial dilutions). After the cells were treated with the compounds of the present disclosure for a period of time, the cell viability detection reagent was added to the culture medium for cell viability assessment according to the instructions provided with the CCK-8 kit. […] The growth inhibition of the compounds of the present disclosure on cells was plotted by Prism Graphpad software, and the IC50 values of the compounds of the present disclosure were calculated therefrom.
# NCI-H1975 = assay: CCK-8 tumor cell proliferation, NCI-H1975; assay type: cell-based, Human; conditions: Homo sapiens; Table 15, ALK inhibitor based; NCI-H1975; read-out: IC50 inhibiting proliferation of tumor cells, NCI-H1975
# Procedure: as §1, §2
# SR = assay: CCK-8 tumor cell proliferation, SR; assay type: cell-based, Human; conditions: Homo sapiens; Table 15, ALK inhibitor based; SR; read-out: IC50 inhibiting proliferation of tumor cells, SR
# In short: (§3)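 Cell viability (CCK-8) after compound exposure; IC50 calculated. Cells seeded, treated after 24 h, maximum dose 10 μM, 5-fold serial dilutions over 10 concentrations.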
# HCC827 = assay: CCK-8 tumor cell proliferation, HCC827; assay type: cell-based, Human; conditions: for IC50: Homo sapiens
# Mino = assay: CCK-8 tumor cell proliferation, Mino; assay type: cell-based, Human; conditions: for IC50: Homo sapiens, Table 15, ALK inhibitor based, Mino, read-out: IC50 inhibiting proliferation of tumor cells, Mino
# In short: as §3
# PC-9 = assay: CCK-8 tumor cell proliferation, PC-9; assay type: cell-based, Human; conditions: Homo sapiens
# MDA-MB-231 = assay: CCK-8 tumor cell proliferation, MDA-MB-231; assay type: cell-based, Human; parameters: IC50 for inhibiting the proliferation of tumor cells, MDA-MB-231: scale not given here; conditions: for IC50: Homo sapiens, Table 15, ALK inhibitor based, MDA-MB-231, read-out: IC50 inhibiting proliferation of tumor cells, MDA-MB-231
# In short: as §3
# Jurkat = assay: CCK-8 tumor cell proliferation, Jurkat; assay type: cell-based, Human; conditions: Homo sapiens, Table 23, compared to Comparative Example compounds, read-out: Inhibitory activity (IC50, nM) against tumor cell proliferation, Jurkat
# In short: as §3
# MM.1R = assay: CCK-8 tumor cell proliferation, MM.1R; assay type: cell-based; conditions: Table 23, compared to Comparative Example compounds, read-out: Inhibitory activity (IC50, nM) against tumor cell proliferation, MM.1R
# In short: as §3
# CAL-62 = assay: CCK-8 tumor cell proliferation, CAL-62; assay type: cell-based, Human; conditions: Homo sapiens; Table 23, compared to Comparative Example compounds; CAL-62; read-out: Inhibitory activity (IC50, nM) against tumor cell proliferation, CAL-62
# In short: as §3
# THP-1 = assay: CCK-8 tumor cell proliferation, THP-1; assay type: cell-based, Human; conditions: 72 h
# Procedure: as §1, §2
# SU-DHL-6 = assay: CCK-8 tumor cell proliferation, SU-DHL-6; assay type: cell-based, Human; conditions: Table 8, designed based on ER inhibitors; 72 h
# Procedure: as §1, §2
# MM.1S = assay: CCK-8 tumor cell proliferation, MM.1S; assay type: cell-based; conditions: Table 8, designed based on ER inhibitors; 72 h
# In short: as §3
# T47D = assay: CCK-8 tumor cell proliferation, T47D; assay type: cell-based, Human; conditions: Table 8, designed based on ER inhibitors; 96 h
# Procedure: as §1, §2
# CCRF-CEM = assay: CCK-8 tumor cell proliferation, CCRF-CEM; assay type: cell-based, Human; parameters: IC50 for inhibiting the proliferation of tumor cells, CCRF-CEM: scale not given here; conditions: 96 h
# In short: as §3
# Kasumi-1 = assay: CCK-8 tumor cell proliferation, Kasumi-1; assay type: cell-based, Human; conditions: Table 8, designed based on ER inhibitors; 72 h
# In short: as §3
# SW620 = assay: CCK-8 tumor cell proliferation, SW620; assay type: cell-based, Human; conditions: Table 8, designed based on ER inhibitors; 96 h
# In short: as §3
# Hep3B2.7-1 = assay: CCK-8 tumor cell proliferation, Hep3B2.7-1; assay type: cell-based, Human; conditions: Table 8, designed based on ER inhibitors; 96 h
# In short: as §3
# MV-4-11 = assay: CCK-8 tumor cell proliferation, MV-4-11; assay type: cell-based, Human; conditions: Homo sapiens, MV4-11; Table 15, ALK inhibitor based; MV-4-11; read-out: IC50 inhibiting proliferation of tumor cells, MV-4-11
# In short: as §3
# Vcap = assay: CCK-8 tumor cell proliferation, Vcap; assay type: cell-based, Human; conditions: Table 11, designed based on EGFR inhibitors; 96 h
# In short: as §3
# [1] = Table 15, ALK inhibitor based, HCC827, read-out: IC50 inhibiting proliferation of tumor cells, HCC827
# [2] = Table 15, ALK inhibitor based, PC-9, read-out: IC50 inhibiting proliferation of tumor cells, PC-9
# [3] = Table 8, designed based on ER inhibitors, 96 h
# [4] = Table 11, designed based on EGFR inhibitors
SMILES,IC50 (NCI-H2228),IC50 (NCI-H1975),IC50 (SR),IC50 (Mino),IC50 (PC-9; [2]),IC50 (MDA-MB-231),also measured
"COc1cc(N2CCC(N3CCN(Cc4ccc5c(c4)CN(C4CCC(=O)NC4=O)C5=O)CC3)CC2)ccc1Nc1ncc(Cl)c(Nc2ccccc2P(C)(C)=O)n1 (centres unmarked) [GT-02811, 3-(5-((4-(1-(4-((5-chloro-4-((2-(dimethylphosphoryl)phenyl)amino)pyrimidin-2-yl)amino)-3-methoxyphenyl)piperidin-4-yl)piperazin-1-yl)methyl)-1-oxoisoindolin-2-yl)piperidine-2,6-dione]",1000 to 5000 nM,100 to 500 nM,–,–,–,–,–
"CCc1cc2c(cc1N1CCC(N3CCN(Cc4ccc5c(c4)CN(C4CCC(=O)NC4=O)C5=O)CC3)CC1)C(C)(C)c1[nH]c3cc(C#N)ccc3c1C2=O (centres unmarked) [GT-02972, 8-(4-(4-((2-(2,6-dioxopiperidin-3-yl)-1-oxoisoindolin-5-yl)methyl)piperazin-1-yl)piperidin-1-yl)-9-ethyl-6,6-dimethyl-11-oxo-6,11-dihydro-5H-benzo[b]carbazole-3-carbonitrile]",500 to 1000 nM,500 to 1000 nM,< 50 nM,500 to 1000 nM,500 to 1000 nM,500 to 1000 nM,IC50 (HCC827; [1]): 1000 to 5000 nM
"Cc1cc(Nc2ncc(Cl)c(Nc3ccccc3S(=O)(=O)C(C)C)n2)c(OC(C)C)cc1C1CCN(Cc2ccc3c(c2)CN(C2CCC(=O)NC2=O)C3=O)CC1 (centres unmarked) [GT-02973, 3-(5-((4-(4-((5-chloro-4-((2-(isopropylsulfonyl)phenyl)amino)pyrimidin-2-yl)amino)-5-isopropoxy-2-methylphenyl)piperidin-1-yl)methyl)-1-oxoisoindolin-2-yl)piperidine-2,6-dione]",100 to 500 nM,–,< 50 nM,–,500 to 1000 nM,500 to 1000 nM,–
"COc1cc(N2CCC(NCc3ccc4c(c3)CN(C3CCC(=O)NC3=O)C4=O)CC2)ccc1Nc1ncc(Cl)c(Nc2ccccc2P(C)(C)=O)n1 (centres unmarked) [GT-03015, 3-(5-(((1-(4-((5-chloro-4-((2-(dimethylphosphoryl)phenyl)amino)pyrimidin-2-yl)amino)-3-methoxyphenyl)piperidin-4-yl)amino)methyl)-1-oxoisoindolin-2-yl)piperidine-2,6-dione]",100 to 500 nM,50 to 100 nM,–,–,–,–,–
"COc1cc(N2CCC(N(C)Cc3ccc4c(c3)CN(C3CCC(=O)NC3=O)C4=O)CC2)ccc1Nc1ncc(Cl)c(Nc2ccccc2P(C)(C)=O)n1 (centres unmarked) [GT-03319, 3-(5-(((1-(4-((5-chloro-4-((2-(dimethylphosphoryl)phenyl)amino)pyrimidin-2-yl)amino)-3-methoxyphenyl)piperidin-4-yl)(methyl)amino)methyl)-1-oxoisoindolin-2-yl)piperidine-2,6-dione]",50 to 100 nM,< 50 nM,< 50 nM,1000 to 5000 nM,50 to 100 nM,50 to 100 nM,IC50 (Jurkat): 1000 to 5000 nM; IC50 (HCC827; [1]): 50 to 100 nM; IC50 (MM.1R): 100 to 500 nM; IC50 (CAL-62): < 50 nM
"CCc1cc2c(cc1N1CCN(Cc3ccc4c(c3)CN(C3CCC(=O)NC3=O)C4=O)CC1)C(C)(C)c1[nH]c3cc(C#N)ccc3c1C2=O (centres unmarked) [GT-03409, 8-(4-((2-(2,6-dioxopiperidin-3-yl)-1-oxoisoindolin-5-yl)methyl)piperazin-1-yl)-9-ethyl-6,6-dimethyl-11-oxo-6,11-dihydro-5H-benzo[b]carbazole-3-carbonitrile]",1000 to 5000 nM,–,< 50 nM,–,1000 to 5000 nM,1000 to 5000 nM,IC50 (HCC827; [1]): 1000 to 5000 nM
"NC(=O)c1ccc(N2CCN(Cc3ccc4c(c3)CN(C3CCC(=O)NC3=O)C4=O)CC2)nc1-c1ccc(Oc2ccccc2)cc1 (centres unmarked) [GT-03636, 6-(4-((2-(2,6-dioxopiperidin-3-yl)-1-oxoisoindolin-5-yl)methyl)piperazin-1-yl)-2-(4-phenoxyphenyl)nicotinamide]",–,–,–,–,–,–,"IC50 for inhibiting the proliferation of tumor cells, THP-1 (THP-1; Table 7, designed based on BTK inhibitors): A+"
"O=C1CCC(N2Cc3cc(CN4CCN(c5ccc(C(=C(CCCl)c6ccc(O)cc6)c6ccc(O)cc6)cc5)CC4)ccc3C2=O)C(=O)N1 (centres unmarked) [GT-03638, 3-(5-((4-(4-(4-chloro-1,2-bis(4-hydroxyphenyl)but-1-en-1-yl)phenyl)piperazin-1-yl)methyl)-1-oxoisoindolin-2-yl)piperidine-2,6-dione]",–,–,–,–,–,–,"IC50 for inhibiting the proliferation of tumor cells, SU-DHL-6 (SU-DHL-6): A+; IC50 for inhibiting the proliferation of tumor cells, HCC827 (HCC827; [3]): A+; IC50 for inhibiting the proliferation of tumor cells, MM.1S (MM.1S): A+; IC50 for inhibiting the proliferation of tumor cells, T47D (T47D): A+; IC50 for inhibiting the proliferation of tumor cells, Mino (Mino; Table 8, designed based on ER inhibitors, 72 h): A+; IC50 for inhibiting the proliferation of tumor cells, CCRF-CEM (CCRF-CEM; Table 8, designed based on ER inhibitors): A+; IC50 for inhibiting the proliferation of tumor cells, Kasumi-1 (Kasumi-1): A+; IC50 for inhibiting the proliferation of tumor cells, SW620 (SW620): A+; IC50 for inhibiting the proliferation of tumor cells, MDA-MB-231 (MDA-MB-231; [3]): A+; IC50 for inhibiting the proliferation of tumor cells, Hep3B2.7-1 (Hep3B2.7-1): A+"
"CCc1cc2c(cc1N1CCC(N3CCN(Cc4cc(F)c5c(c4)CN(C4CCC(=O)NC4=O)C5=O)CC3)CC1)C(C)(C)c1[nH]c3cc(C#N)ccc3c1C2=O (centres unmarked) [GT-03760, 8-(4-(4-((2-(2,6-dioxopiperidin-3-yl)-7-fluoro-1-oxoisoindolin-5-yl)methyl)piperazin-1-yl)piperidin-1-yl)-9-ethyl-6,6-dimethyl-11-oxo-6,11-dihydro-5H-benzo[b]carbazole-3-carbonitrile]",100 to 500 nM,50 to 100 nM,< 50 nM,100 to 500 nM,–,–,IC50 (MV-4-11): 500 to 1000 nM
"O=C1CCC(N2Cc3cc(CN4CCC(N5CCN(c6ccc(-c7cc(F)c8c(c7)C(=O)N(C(C(=O)Nc7nccs7)c7ncn9c7CCC9)C8)cc6)CC5)C(F)(F)C4)ccc3C2=O)C(=O)N1 (centres unmarked) [GT-04459, 2-(6,7-dihydro-5H-pyrrolo[1,2-c]imidazol-1-yl)-2-(6-(4-(4-(1-((2-(2,6-dioxopiperidin-3-yl)-1-oxoisoindolin-5-yl)methyl)-3,3-difluoropiperidin-4-yl)piperazin-1-yl)phenyl)-4-fluoro-1-oxoisoindolin-2-yl)-N-(thiazol-2-yl)acetamide]",–,–,–,–,–,–,"IC50 for inhibiting the proliferation of tumor cells, Vcap (Vcap): A+; IC50 for inhibiting the proliferation of tumor cells, CCRF-CEM (CCRF-CEM; [4]): A+; IC50 for inhibiting the proliferation of tumor cells, THP-1 (THP-1; [4]): A+"
"CCc1cc2c(cc1N1CCC(N3CCOCC3)CC1)C(C)(C)c1[nH]c3cc(C#N)ccc3c1C2=O [alectinib, reference compound]",1000 to 5000 nM,1000 to 5000 nM,< 50 nM,5000 to 10000 nM,100 to 500 nM,1000 to 5000 nM,–
"COc1cc(N2CCC(N3CCN(C)CC3)CC2)ccc1Nc1ncc(Cl)c(Nc2ccccc2P(C)(C)=O)n1 [brigatinib, reference compound]",100 to 500 nM,500 to 1000 nM,< 50 nM,5000 to 10000 nM,–,500 to 1000 nM,"IC50 (HCC827; HCC827, read-out: IC50 inhibiting proliferation of tumor cells, HCC827): 100 to 500 nM; IC50 (PC-9; PC-9, read-out: IC50 inhibiting proliferation of tumor cells, PC-9): 1000 to 5000 nM"
